The results in this text go back to patent US20250215013A1, “SUBSTITUTED TRICYCLIC COMPOUNDS AS PARP INHIBITORS AND THE USE THEREOF” (IMPACT THERAPEUTICS (SHANGHAI), INC., priority 2022, published 2025).

Each structure is given as a SMILES string. A value given as a limit tells only on which side of the number the result lay.

The test system of one test is MDA-MB-436 cells. The experiment in a line: Growth inhibition assay against BRCA mutant human breast cancer MDA-MB-436 cell line (CCK-8). Conditions: Homo sapiens, MDA-MB-436, […], proliferation of MDA-MB-436 cells, 7 days. Type of test: cell-based.
A word on the IC50: it is the concentration needed to halve the response being measured. A higher IC50 goes with weaker potency. For the compound `CNC(=O)c1ccc(N2CCN(Cc3ccc4c(c3)[nH]c(=O)c3ncsc34)CC2)c(C)n1` [Example 4, 7-((4-(2-methyl-6-(methylcarbamoyl)pyridin-3-yl)piperazin-1-yl)methyl)thiazolo[4,5-c]quinolin-4(5H)-one], the IC50 amounted to 7.69 nM.
Take `CNC(=O)c1ccc(N2CCN(Cc3ccc4c(c3)[nH]c(=O)c3cn[nH]c34)CC2)c(C)n1` [Example 7, 7-((4-(2-methyl-6-(methylcarbamoyl)pyridin-3-yl)piperazin-1-yl)methyl)-1,5-dihydro-4H-pyrazolo[4,3-c]quinolin-4-one]: the IC50 stood at 5.22 nM.
`CNC(=O)c1ccc(N2CCN(Cc3ccc4c(c3)[nH]c(=O)c3c4ccn3C)CC2)c(C)n1` [Example 11, 7-((4-(2-methyl-6-(methylcarbamoyl)pyridin-3-yl)piperazin-1-yl)methyl)-3-methyl-3,5-dihydro-4H-pyrrolo[2,3-c]quinolin-4-one] returned an IC50 of 11.3 nM.
Same read-out and setting: the same measure for `CNC(=O)c1ccc(N2CCN(Cc3ccc4c(c3)[nH]c(=O)c3cc[nH]c34)CC2)c(C)n1` [Example 23, 7-((4-(2-methyl-6-(methylcarbamoyl)pyridin-3-yl)piperazin-1-yl)methyl)-1,5-dihydro-4H-pyrrolo[3,2-c]quinolin-4-one]: 1.74 nM; for `CNC(=O)c1ccc(N2CCN(Cc3ccc4c(c3)[nH]c(=O)c3ccn(C)c34)CC2)c(F)n1` [Example 24, 7-((4-(2-fluoro-6-(methylcarbamoyl)pyridin-3-yl)piperazin-1-yl)methyl)-1-methyl-1,5-dihydro-4H-pyrrolo[3,2-c]quinolin-4-one]: 1.11 nM; for `CNC(=O)c1ccc(N2CCN(Cc3ccc4c([nH]c(=O)n5ccnc45)c3F)CC2)c(C)n1` [Example 50, 8-((4-(2-methyl-6-(methylcarbamoyl)pyridin-3-yl)piperazin-1-yl)methyl)-7-fluoroimidazo[1,2-c]quinazolin-5(6H)-one]: 23.6 nM.
In turn, `CNC(=O)c1ccc(N2CCN(Cc3ccc4c([nH]c(=O)c5c(Cl)cnn54)c3F)CC2)c(C)n1` [Example 59, 7-((4-(2-methyl-6-(methylcarbamoyl)pyridin-3-yl)piperazin-1-yl)methyl)-6-fluoro-3-chloro-pyrazolo[1,5-a]quinoxalin-4(5H)-one] gave an IC50 of 2.13 nM.
Same read-out and setting: the same measure for `CNC(=O)c1ccc(N2CCN(Cc3ccc4c(c3)[nH]c(=O)c3n[nH]cc34)CC2)c(C)n1` [Example 70, 7-((4-(2-methyl-6-(methylcarbamoyl)pyridin-3-yl)piperazin-1-yl)methyl)-2,5-dihydro-4H-pyrazolo[3,4-c]quinolin-4-one]: 28.9 nM; for `CNC(=O)c1ccc(N2CCN(Cc3ccc4c([nH]c(=O)n5nccc45)c3F)CC2)c(F)n1` [Example 73, 8-((4-(2-fluoro-6-(methylcarbamoyl)pyridin-3-yl)piperazin-1-yl)methyl)-7-fluoropyrazolo[1,5-c]quinazolin-5(6H)-one]: 12.3 nM.
Compound `CNC(=O)c1ccc(N2CCN(Cc3ccc4c([nH]c(=O)c5cn(C)nc54)c3F)CC2)c(C)n1` [Example 88, 7-((4-(2-methyl-6-(methylcarbamoyl)pyridin-3-yl)piperazin-1-yl)methyl)-6-fluoro-2-methyl-2,5-dihydro-4H-pyrazolo[4,3-c]quinolin-4-one] gave an IC50 of 21.7 nM.
Still for that read-out and setting: the figure for `CNC(=O)c1ccc(N2CCN(Cc3ccc4c([nH]c(=O)c5cn(C)nc54)c3F)CC2)c(F)n1` [Example 90, 7-((4-(2-fluoro-6-(methylcarbamoyl)pyridin-3-yl)piperazin-1-yl)methyl)-6-fluoro-2-methyl-2,5-dihydro-4H-pyrazolo[4,3-c]quinolin-4-one] is 28.7 nM.
In the case of `CNC(=O)c1ccc(N2CCN(Cc3cc4[nH]c(=O)c5ocnc5c4cc3F)CC2)c(F)n1` [Example 94, 7-((4-(2-fluoro-6-(methylcarbamoyl)pyridin-3-yl)piperazin-1-yl)methyl)-8-fluorooxazolo[5,4-c]quinolin-4(5H)-one], the IC50 was above 100 nM.
On the same count and under the same terms, the same measure for `CNC(=O)c1ccc(N2CCN(Cc3ccc4c([nH]c(=O)c5ocnc54)c3F)CC2)c(F)n1` [Example 95, 7-((4-(2-fluoro-6-(methylcarbamoyl)pyridin-3-yl)piperazin-1-yl)methyl)-6-fluorooxazolo[5,4-c]quinolin-4(5H)-one]: above 100 nM; for `CNC(=O)c1ccc(N2CCN(Cc3ccc4c([nH]c(=O)c5c(C)noc54)c3F)CC2)c(F)n1` [Example 96, 7-((4-(2-fluoro-6-(methylcarbamoyl)pyridin-3-yl)piperazin-1-yl)methyl)-3-methyl-6-fluoroisoxazolo[4,5-c]quinolin-4(5H)-one]: 36.7 nM; for `CNC(=O)c1ccc(N2CCN(Cc3cc4[nH]c(=O)c5c(C)noc5c4cc3F)CC2)c(F)n1` [Example 97, 7-((4-(2-fluoro-6-(methylcarbamoyl)pyridin-3-yl)piperazin-1-yl)methyl)-3-methyl-8-fluoroisoxazolo[4,5-c]quinolin-4(5H)-one]: 9.79 nM.
`CNC(=O)c1ccc(N2CCN(Cc3ccc4c([nH]c(=O)c5ncn(C)c54)c3F)CC2)c(F)n1` [Example 100, 7-((4-(2-fluoro-6-(methylcarbamoyl)pyridin-3-yl)piperazin-1-yl)methyl)-6-fluoro-1-methyl-1,5-dihydro-4H-imidazo[4,5-c]quinolin-4-one] displayed a concentration for half-maximal inhibition (IC50) above 100 nM.
For the compound `CNC(=O)c1ccc(N2CCN(Cc3ccc4c([nH]c(=O)c5occc54)c3F)CC2)c(C(F)F)n1` [Example 101, 7-((4-(2-(difluoromethyl)-6-(methylcarbamoyl)pyridin-3-yl)piperazin-1-yl)methyl)-6-fluorofuro[2,3-c]quinolin-4(5H)-one], the IC50 is 23 nM.
`CNC(=O)c1ccc(N2CCN(Cc3ccc4c([nH]c(=O)c5occc54)c3Cl)CC2)c(F)n1` [Example 105, 7-((4-(2-fluoro-6-(methylcarbamoyl)pyridin-3-yl)piperazin-1-yl)methyl)-6-chlorofuro[2,3-c]quinolin-4(5H)-one] displayed an IC50 above 100 nM.
Compound `NC(=O)c1ccc(N2CCN(Cc3ccc4c([nH]c(=O)c5occc54)c3F)CC2)c(F)n1` [Example 106, 7-((4-(2-fluoro-6-carbamoylpyridin-3-yl)piperazin-1-yl)methyl)-6-fluorofuro[2,3-c]quinolin-4(5H)-one] had an IC50 of 17.5 nM.
`O=c1[nH]c2c(F)c(CN3CCN(c4ccc(-c5nnc[nH]5)nc4F)CC3)ccc2c2ccoc12` [Example 110, 7-((4-(2-fluoro-6-(4H-1,2,4-triazol-3-yl)pyridin-3-yl)piperazin-1-yl)methyl)-6-fluorofuro[2,3-c]quinolin-4(5H)-one]: inhibition was half-maximal at 12.9 nM (IC50).
As for `CNC(=O)c1ccc(N2CCN(Cc3ccc4c(c3)[nH]c(=O)c3occc34)CC2)cn1` [Example 113, 7-((4-(6-(methylcarbamoyl)pyridin-3-yl)piperazin-1-yl)methyl)furo[2,3-c]quinolin-4(5H)-one], it took 2.19 nM to reach half-maximal inhibition (IC50).
In turn, `CNC(=O)c1ccc(N2CCN(Cc3ccc4c(c3)[nH]c(=O)c3ccoc34)CC2)c(F)n1` [Example 114, 7-((4-(2-fluoro-6-(methylcarbamoyl)pyridin-3-yl)piperazin-1-yl)methyl)furo[3,2-c]quinolin-4(5H)-one] had an IC50 of 1.32 nM.
Take `CNC(=O)c1ccc(N2CCN(Cc3ccc4c([nH]c(=O)c5oc(C)cc54)c3F)CC2)c(F)n1` [Example 116, 7-((4-(2-fluoro-6-(methylcarbamoyl)pyridin-3-yl)piperazin-1-yl)methyl)-6-fluoro-2-methylfuro[2,3-c]quinolin-4(5H)-one]: the IC50 is 7.5 nM.
As for `CNC(=O)c1ccc(C2CCN(Cc3ccc4c([nH]c(=O)c5c(C)cnn54)c3F)CC2)c(F)n1` [Example 124, 6-fluoro-7-((4-(2-fluoro-6-(methylcarbamoyl)pyridin-3-yl)piperidin-1-yl)methyl)-3-methylpyrazolo[1,5-a]quinoxalin-4(5H)-one], the 50% inhibitory concentration (IC50) was determined as 25.5 nM.
Regarding `CCNC(=O)c1ccc(N2CCN(Cc3ccc4c([nH]c(=O)c5c(C)cnn54)c3F)CC2)c(F)n1` [Example 125, 7-((4-(2-fluoro-6-(ethylcarbamoyl)pyridin-3-yl)piperazin-1-yl)methyl)-6-fluoro-3-methylpyrazolo[1,5-a]quinoxalin-4(5H)-one], the IC50 turned out to be 7.24 nM.
The compound `CNC(=O)c1ncc(N2CCN(Cc3ccc4c([nH]c(=O)c5c(C)cnn54)c3F)CC2)cc1F` [Example 127, 7-((4-(5-fluoro-6-(methylcarbamoyl)pyridin-3-yl)piperazin-1-yl)methyl)-6-fluoro-3-methylpyrazolo[1,5-a]quinoxalin-4(5H)-one] displayed an IC50 of 55.3 nM.
Same read-out and setting: the same measure for `CNC(=O)c1ccc(N[C@@H]2CCN(Cc3ccc4c([nH]c(=O)c5c(C)cnn54)c3F)C2)cn1` [Example 134, (R)-6-fluoro-3-methyl-7-((3-((6-(methylcarbamoyl)pyridin-3-yl)amino)pyrrolidin-1-yl)methyl)pyrazolo[1,5-a]quinoxalin-4(5H)-one]: above 100 nM; for `CNC(=O)c1ccc(N[C@@H]2CCN(Cc3ccc4c([nH]c(=O)c5c(C)cnn54)c3F)C2)c(F)n1` [Example 135, (R)-6-fluoro-7-((3-((2-fluoro-6-(methylcarbamoyl)pyridin-3-yl)amino)pyrrolidin-1-yl)methyl)-3-methylpyrazolo[1,5-a]quinoxalin-4(5H)-one]: above 100 nM.
`CNC(=O)c1ccc(N2CCN(Cc3ccc4c(c3)[nH]c(=O)c3nocc34)CC2)c(F)n1` [Example 144, 7-((4-(2-fluoro-6-(methylcarbamoyl)pyridin-3-yl)piperazin-1-yl)methyl)isoxazolo[3,4-c]quinolin-4(5H)-one] displayed an IC50 of 1.9 nM.
With `CNC(=O)c1ccc(N2CCN(Cc3ccc4c([nH]c(=O)c5cncn54)c3F)CC2)cn1` [Example 145, 7-((4-(6-(methylcarbamoyl)pyridin-3-yl)piperazin-1-yl)methyl)-6-fluoroimidazo[1,5-a]quinoxalin-4(5H)-one], the IC50 was above 100 nM.

Still in this test, the particulars now being: proliferation of MDA-MB-436 cells, 7 days.
`CNC(=O)c1ccc(N2CCN(Cc3ccc4c([nH]c(=O)n5nccc45)c3F)CC2)c(C)n1` [Example 119, 8-((4-(2-methyl-6-(methylcarbamoyl)pyridin-3-yl)piperazin-1-yl)methyl)-7-fluoropyrazolo[1,5-c]quinazolin-5(6H)-one] yielded an IC50 of 7.87 nM.
